Consider ten compounds from patent US20250326748A1, “COMPOUNDS AND METHODS FOR MODULATING SPLICING” (REMIX THERAPEUTICS INC., priority 2022, published 2025).

Like-named read-outs stand apart in the source and are kept apart here. Bounds are passed on as bounds.

In one data set the test system is HiBiT-tagged HTT protein. The experiment in a line: HiBiT protein abundance assay, HTT (K562 HiBiT knock-in). The data set is classed as cell-based, human. The following applies: HiBiT knock-in cells, 24 hours. As for the experimental part:
Compounds described herein were used to screen for effects on quantitative protein abundance using a HiBit assay system (Promega). Quantitative protein abundance was determined by measuring the protein levels of HiBit-tagged protein targets expressed in cell culture via luminescence using the Nano-Glo HiBiT Lytic Detection System, which uses a split complementation assay format to reconstitute NanoBiT enzyme to generate a luminescent signal. A protein abundance assay was developed such that endogenous protein targets could be modified with the HiBiT peptide tag and their abundance could be assessed after compound treatment. Briefly, K562 cell lines containing a HiBiT-modification were treated with various compounds described herein (e.g., compounds of Formulas (I), or (II)). After treatment for 24 hours, the protein abundance of a specific target was determined by measuring luminescence.
• Promega Nano-Glo HiBiT Lytic Detection System (cat #N3030) • Corning 384-well TC-treated microplates (cat #3570)
(§1) Cells were maintained in IMDM with 10% FBS. Before the assay, cells were diluted with […] growth media (IMDM+1% FBS media) and were seeded in a 384-well plate at a density of 10000 cells/well (for each cell line listed in Table 6). Each compound was prepared as a 10-point 3-old serial dilution in DMSO with the top dose at a final concentration of 10 μM in the well. Unmodified K562 cells were added at the previously specified density with DMSO to serve as an assay baseline and positive control (PC) and DMSO only with the respective modified cell lines was added to the negative control (NC) columns. Final DMSO concentration was kept at or below 0.25%. Treated cell plates were placed in an incubator at 37° C. with 5% CO2 for 24 hours. After 24 hours, 25 μL of Complete HiBit Lytic reagent was added to each well at room temperature (e.g. one plate requiring 10 ml Lytic Buffer, 100 μL LgBiT Protein, 200 μL Lytic Substrate), shaken for 5 minutes at 600 RPM, then left to sit for 10 minutes for signal to stabilize before reading on a Spark Cyto plate reader (Tecan) with a 500 ms measurement time.
(§2) To determine compound effects on protein abundance of each target in Table 6, the percent response for each respective cell line was calculated at each compound concentration as follows:
(§3) For the normalized response at each concentration, a four-parameter logistical regression was fit to the data and the response was interpolated at the 50% value to determine a concentration for protein abundance at 50% (IC50) the untreated control.
(With HiBiT, luminescence reflects the tagged protein that the partner subunit can reach.)

The next data set concerns Target C. The experiment in a line: HiBiT protein abundance assay, Target C (K562 HiBiT knock-in). It counts as cell-based, human. The following applies: HiBiT knock-in cells, 24 hours. As for the experimental part: as §1, §2, §3
The test system of a further data set is K562 cells. The experiment in a line: Cell viability, Cell Titer Glo 2.0 assay, K562. The following applies: 72 hours.
The next data set has as its system HTT mRNA. The experiment in a line: Splicing RT-qPCR assay, HTT canonical (CJ) and alternative (AJ) junction mRNA. It counts as cell-based, human. The following applies: Homo sapiens; for IC50: canonical junction mRNA; for AC50: alternative junction mRNA, read-out: HTT AJ (AC50, increase in AJ mRNA). The procedure, abridged:
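Cmpd 24 h, 37 °C/5% CO2; 11-pt 3x serial dilution from 10 uM final; DMSO max 0.25%. Cells: A673 (DMEM/10% FBS, pre-adhered 24 h) or K562 (IMDM/10% FBS). Lyse, DNase I, then 1-step RT-qPCR for CJ and AJ; housekeeping-normalized.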
(In general: Real-time PCR tracks product formation cycle by cycle.)

Where [1] appears, read: 24 h, RT-qPCR, A673 or K562 cells, 24 hours treatment, read-out: HTT CJ (IC50, decrease in CJ mRNA).
The mark [2] stands for this setting: qPCR panel, read-out: HTT CJ (decrease in CJ mRNA levels, IC50).
Where [3] appears, read: RT-qPCR, A673 or K562 cells, 24 hours treatment.

As a reminder, the IC50 is the concentration at which inhibition is half-maximal. A word on the AC50: it is the concentration giving half of the maximal activity seen.

Regarding `CN[C@H]1CCN(c2cnc3nc(-c4cc(C)c5nc(C)cn5n4)ccc3c2)C1` [Compound 116], the IC50 in the data set with HiBiT-tagged HTT protein, in the data set with Target C, in the data set with HTT mRNA (setting [1]) and with HTT mRNA (setting [2]) was under 100 nM throughout. Also, the “Effect on Cell Viability, K562” value in the data set on K562 cells is given as “A (<100 nM)”. Further, the concentration at half-maximal activity (AC50) in the data set with HTT mRNA (setting [3]) was under 100 nM.

With `CN[C@@H]1CCN(c2cnc3nc(-c4cc(C)c5nc(C)cn5n4)ccc3c2)C1` [Compound 117], the IC50 in the data set on HiBiT-tagged HTT protein lay within 100 to 1000 nM; in the data set with Target C it was 100 to 1000 nM; in the data set with HTT mRNA (setting [1]) it was 1000 to 10000 nM; in the data set with HTT mRNA (setting [2]) it was 1000 to 10000 nM. The “Effect on Cell Viability, K562” value with K562 cells is listed as “B (100-1000 nM)”. For the same compound, the AC50 with HTT mRNA (setting [3]) fell in the range of 100 to 1000 nM.

As for `Cc1c(O)c(-c2ccc3cc(N4CC[C@@H](NCC5CC5)C4)cnc3n2)cc2cn(C)nc12` [Compound 118], the half-inhibitory concentration (IC50) with HiBiT-tagged HTT protein, in the data set with Target C, with HTT mRNA (setting [1]) and in the data set with HTT mRNA (setting [2]) was under 100 nM in each case. Moreover, in the data set with K562 cells, the “Effect on Cell Viability, K562” value is listed as “A (<100 nM)”. Moreover, the half-maximal activity concentration (AC50) with HTT mRNA (setting [3]) is under 100 nM.

In the case of `CN[C@H]1CCN(c2cnc3nc(-c4cc5cn(C)nc5c(C)c4O)ncc3c2)C1` [Compound 120], the IC50 in the data set on HiBiT-tagged HTT protein was 100 to 1000 nM; in the data set on Target C, 1000 to 10000 nM; in the data set on HTT mRNA (setting [1]), 100 to 1000 nM; in the data set on HTT mRNA (setting [2]), 100 to 1000 nM. Further, the “Effect on Cell Viability, K562” value in the data set on K562 cells is given as “A (<100 nM)”. Also, the AC50 in the data set with HTT mRNA (setting [3]) was 100 to 1000 nM.

As for `CCNC1CCN(c2cnc3nc(-c4cc5cn(C)nc5c(C)c4O)ccc3c2)C1` (centres unmarked) [Compound 122, 5-{6-[3-(ethylamino)pyrrolidin-1-yl]-1,8-naphthyridin-2-yl}-2,7-dimethylindazol-6-ol], the IC50 in the data set with HiBiT-tagged HTT protein, in the data set with Target C, in the data set on HTT mRNA (setting [1]) and in the data set with HTT mRNA (setting [2]) was under 100 nM each time. For the same compound, the “Effect on Cell Viability, K562” value in the data set on K562 cells was “A (<100 nM)”. In addition, the AC50 with HTT mRNA (setting [3]) is under 100 nM.

In the case of `CCN[C@H]1CCN(c2cnc3nc(-c4cc5cn(C)nc5c(C)c4O)ccc3c2)C1` [Compound 123], the IC50 in the data set with HiBiT-tagged HTT protein was under 100 nM; with Target C, 100 to 1000 nM; in the data set with HTT mRNA (setting [1]), 100 to 1000 nM; with HTT mRNA (setting [2]) it was 100 to 1000 nM. Also, the AC50 in the data set on HTT mRNA (setting [3]) fell in the range of 100 to 1000 nM.

On to `CCN[C@@H]1CCN(c2cnc3nc(-c4cc5cn(C)nc5c(C)c4O)ccc3c2)C1` [Compound 124], for which the IC50 with HiBiT-tagged HTT protein, with Target C, in the data set on HTT mRNA (setting [1]) and in the data set on HTT mRNA (setting [2]) was under 100 nM in each case. Moreover, in the data set on K562 cells, the “Effect on Cell Viability, K562” value is on record as “A (<100 nM)”. In addition, the AC50 in the data set on HTT mRNA (setting [3]) is under 100 nM.

`Cc1c(O)c(-c2cc(C3CC3)c3cc(N4CCNCC4)cnc3n2)cc2cn(C)nc12` [Compound 144, 5-(4-cyclopropyl-6-(piperazin-1-yl)-1,8-naphthyridin-2-yl)-2,7-dimethyl-2H-indazol-6-ol bis(2,2,2-trifluoroacetate)]: the IC50 with HiBiT-tagged HTT protein is 100 to 1000 nM; with Target C, 1000 to 10000 nM; in the data set on HTT mRNA (setting [1]), 100 to 1000 nM; in the data set with HTT mRNA (setting [2]), 100 to 1000 nM. Also, the AC50 with HTT mRNA (setting [3]) was in the range of 100 to 1000 nM.

For `Cc1cc(-c2cc3cn(C)nc3c(C)c2O)nc2ncc(N3CCNCC3)cc12` [Compound 151, 2,7-dimethyl-5-[4-methyl-6-(piperazin-1-yl)-1,8-naphthyridin-2-yl]indazol-6-ol], the IC50 with HiBiT-tagged HTT protein, in the data set with Target C, with HTT mRNA (setting [1]) and with HTT mRNA (setting [2]) was 100 to 1000 nM in each case. Moreover, the AC50 in the data set on HTT mRNA (setting [3]) lay in the range of 100 to 1000 nM.

On to `CN(c1cnc2nc(-c3cc4cn(C)nc4c(F)c3O)ccc2c1)C1CCNCC1` [Compound 284], for which the IC50 in the data set with HiBiT-tagged HTT protein, in the data set with Target C, in the data set with HTT mRNA (setting [1]) and in the data set on HTT mRNA (setting [2]) was 1000 to 10000 nM throughout. Besides, the AC50 in the data set with HTT mRNA (setting [3]) lay within 1000 to 10000 nM.
